# Data reported in US9540381B2, “Anti-angiogenesis compound, intermediate and use thereof” (Guangzhou KangRui Biological Pharmaceutical Technology Co., …, priority 2013, dated 2017).
# Legend:
# GSK-3-β = target: T1, GSK-3-β (Homo sapiens, UniProt P49841); experiment: Inhibition specificity, GSK-3-β; format: biochemical; details: 5000 nM, average of two tests; read-out: Average Inhibition Rate (%) GSK-3-β
# T1 construct: purchased UPSTATE
# VEGFR2 = target: T2, VEGFR2 (Homo sapiens, UniProt P35968); experiment: In vitro inhibition test on VEGFR2 in HUVECs (anti-phosphorylated VEGFR2 blot); format: cell-based; details: 10 nM, 100 nM and 1 μM, 50 ng/ml VEGF
# T2 construct: endogenous in cells; host or cells: primary HUVECs P3-P5
# T2 sequence (P35968 20-1356): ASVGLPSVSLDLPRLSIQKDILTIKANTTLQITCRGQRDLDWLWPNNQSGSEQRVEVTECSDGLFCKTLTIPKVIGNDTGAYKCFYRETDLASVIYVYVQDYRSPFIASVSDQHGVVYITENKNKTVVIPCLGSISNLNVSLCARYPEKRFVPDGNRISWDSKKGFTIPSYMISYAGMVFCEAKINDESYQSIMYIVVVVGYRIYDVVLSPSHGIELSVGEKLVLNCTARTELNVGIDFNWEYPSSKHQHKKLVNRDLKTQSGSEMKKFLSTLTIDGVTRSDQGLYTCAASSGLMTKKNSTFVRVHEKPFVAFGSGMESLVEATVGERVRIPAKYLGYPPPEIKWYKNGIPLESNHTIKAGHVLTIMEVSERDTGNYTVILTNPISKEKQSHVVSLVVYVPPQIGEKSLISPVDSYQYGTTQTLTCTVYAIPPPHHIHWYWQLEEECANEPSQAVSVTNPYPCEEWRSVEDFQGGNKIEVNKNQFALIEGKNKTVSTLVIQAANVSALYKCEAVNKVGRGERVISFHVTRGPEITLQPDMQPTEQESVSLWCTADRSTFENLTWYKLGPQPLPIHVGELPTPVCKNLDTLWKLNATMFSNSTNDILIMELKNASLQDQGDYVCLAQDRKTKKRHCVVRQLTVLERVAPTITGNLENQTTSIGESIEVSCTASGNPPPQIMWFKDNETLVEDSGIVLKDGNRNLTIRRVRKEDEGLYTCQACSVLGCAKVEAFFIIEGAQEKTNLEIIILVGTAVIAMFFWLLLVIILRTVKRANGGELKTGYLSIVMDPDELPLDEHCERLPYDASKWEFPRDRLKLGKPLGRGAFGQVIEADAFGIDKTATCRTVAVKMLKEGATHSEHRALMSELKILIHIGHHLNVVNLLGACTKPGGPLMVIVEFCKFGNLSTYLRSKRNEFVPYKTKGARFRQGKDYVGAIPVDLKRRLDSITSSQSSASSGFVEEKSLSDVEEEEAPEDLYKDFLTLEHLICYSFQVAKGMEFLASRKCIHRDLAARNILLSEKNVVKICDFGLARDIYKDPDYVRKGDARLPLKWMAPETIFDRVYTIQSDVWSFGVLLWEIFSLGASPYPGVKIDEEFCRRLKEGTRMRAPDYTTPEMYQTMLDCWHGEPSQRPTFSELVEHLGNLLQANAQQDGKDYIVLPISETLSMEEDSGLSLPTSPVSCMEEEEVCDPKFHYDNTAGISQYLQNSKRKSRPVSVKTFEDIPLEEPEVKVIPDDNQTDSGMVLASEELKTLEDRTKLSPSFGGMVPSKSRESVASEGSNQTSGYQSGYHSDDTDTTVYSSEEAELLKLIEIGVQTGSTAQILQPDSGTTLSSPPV
# Method: The experimental method of detecting the inhibition of the compounds of the present invention on VEGFR2 kinase is as follows:
# 1) The primary cultured human umbilical vein endothelial cells (HUVECs) P3-P5 were transferred to 6 well plate, 2×10^5 cells per well;
# 2) compounds 2-1, 2-2 and 2-4 of the present invention (the concentrations are 10 nM, 100 nM and 1 μM for each compound) were added when the cells grow to 70-80%, VEGF was a control, incubation for 30 min;
# 3) 50 ng/ml VEGF (cell Signaling company, US) was added, stimulating for 10 min;
# 4) nondenature lysis buffer was added to terminate the reaction, and cell lysis buffer was collected to carry out protein quantification;
# 5) SDS-PAGE electrophoresis, transfer to nitrocellulose membrane, the membrane was cut off and sealed in phosphate tween buffer, TTBS buffer (Tris-buffered saline 0.01% Tween 20, cell Signaling company, US, PH8.0) formulated from 5% skimmed milk for 2 hours; 6) wash the membrane, seal at 4° C. overnight by use of an anti-phosphorylated VEGFR2 antibody (1:1000 dilution, cell Signaling company, US); 7) on the second day after washing membrane, horse radish peroxidase marked goat anti-rabbit second antibody (cell Signaling company, US) was incubated with the membrane at room temperature for 1 hour; 8) develop with chemiluminescence kit (Millipore company) after washing membrane, and take photos.
# JAK2 = target: T3, JAK2 (Homo sapiens, UniProt O60674); experiment: Inhibition specificity, JAK2; format: biochemical; details: 5000 nM, average of two tests; read-out: Average Inhibition Rate (%) JAK2
# T3 construct: purchased INVITROGEN
# [1] = tested on: vessel development of the FLK1-GFP transgenic danio rerio; experiment: Inhibition test on vascular development of Danio rerio; format: in vivo; details: for inhibition at 0.1 µM / inhibition at 1 µM / inhibition at 5 µM / inhibition at 10 µM / inhibition at 20 µM / inhibition at 40 µM / inhibition at 100 µM: Danio rerio, after 24 hours, n = 5, read-out: inhibition rate on the development of vertebral vessel; for inhibition at 0.1 µM: 100 nM; for inhibition effect on the vessel development of the danio rerio (in words): Table 1 and FIG. 7
# Method: Female fish can spawn 200-300 […], and the fertilization and embryonic development processes are conducted in vitro. They can grow up within 24 hours, and the embryo is transparent, which is suitable for observing the change of intracorporal organs and tissues. These characteristics make the danio rerio become to be one of the five fish laboratory animals accepted by the international organization for standardization. Currently, the danio rerio is widely used in human disease studies, especially used in cardiovascular system studies. The danio rerio can be used for screening the influence of small molecular compounds on angiogenesis. Experimental Method: This experiment uses FLK1-GFP transgenic danio rerio as an animal model which is generally used for screening the influence of compounds on angiogenesis. Vessel can be in vivo observed under fluorescence microscope (Suk-Won Jin, 2005, Development). The selected embryo of the postnatal FLK1-GFP transgenic danio rerio was placed into a culture dish and incubated for 3-5 days in an incubator at 28° C. […] Examine the developmental condition of the vertebral vessel after 24 hours and take photo by use of the fluorescence microscope.
# FGFR2 = target: T4, FGFR2 (Homo sapiens, UniProt P21802); experiment: Inhibition specificity, FGFR2; format: biochemical; details: 5000 nM, average of two tests; read-out: Average Inhibition Rate (%) FGFR2
# T4 construct: purchased CARNA
# P38-α = target: T5, P38-α (Homo sapiens, UniProt Q16539); experiment: Inhibition specificity, P38-α; format: biochemical; details: 5000 nM, average of two tests; read-out: Average Inhibition Rate (%) P38-α
# T5 construct: purchased AMPHORA
# CHEK1 = target: T6, CHEK1 (Homo sapiens, UniProt O14757); experiment: Inhibition specificity, CHEK1; format: biochemical; details: 5000 nM, average of two tests; read-out: Average Inhibition Rate (%) CHEK1
# T6 construct: purchased CARNA
# EGFR = EGFR (Homo sapiens, UniProt P00533); experiment: Inhibition specificity, EGFR; format: biochemical; details: 5000 nM, average of two tests; read-out: Average Inhibition Rate (%) EGFR
# Chain of EGFR (P00533 25-1210, species assumed): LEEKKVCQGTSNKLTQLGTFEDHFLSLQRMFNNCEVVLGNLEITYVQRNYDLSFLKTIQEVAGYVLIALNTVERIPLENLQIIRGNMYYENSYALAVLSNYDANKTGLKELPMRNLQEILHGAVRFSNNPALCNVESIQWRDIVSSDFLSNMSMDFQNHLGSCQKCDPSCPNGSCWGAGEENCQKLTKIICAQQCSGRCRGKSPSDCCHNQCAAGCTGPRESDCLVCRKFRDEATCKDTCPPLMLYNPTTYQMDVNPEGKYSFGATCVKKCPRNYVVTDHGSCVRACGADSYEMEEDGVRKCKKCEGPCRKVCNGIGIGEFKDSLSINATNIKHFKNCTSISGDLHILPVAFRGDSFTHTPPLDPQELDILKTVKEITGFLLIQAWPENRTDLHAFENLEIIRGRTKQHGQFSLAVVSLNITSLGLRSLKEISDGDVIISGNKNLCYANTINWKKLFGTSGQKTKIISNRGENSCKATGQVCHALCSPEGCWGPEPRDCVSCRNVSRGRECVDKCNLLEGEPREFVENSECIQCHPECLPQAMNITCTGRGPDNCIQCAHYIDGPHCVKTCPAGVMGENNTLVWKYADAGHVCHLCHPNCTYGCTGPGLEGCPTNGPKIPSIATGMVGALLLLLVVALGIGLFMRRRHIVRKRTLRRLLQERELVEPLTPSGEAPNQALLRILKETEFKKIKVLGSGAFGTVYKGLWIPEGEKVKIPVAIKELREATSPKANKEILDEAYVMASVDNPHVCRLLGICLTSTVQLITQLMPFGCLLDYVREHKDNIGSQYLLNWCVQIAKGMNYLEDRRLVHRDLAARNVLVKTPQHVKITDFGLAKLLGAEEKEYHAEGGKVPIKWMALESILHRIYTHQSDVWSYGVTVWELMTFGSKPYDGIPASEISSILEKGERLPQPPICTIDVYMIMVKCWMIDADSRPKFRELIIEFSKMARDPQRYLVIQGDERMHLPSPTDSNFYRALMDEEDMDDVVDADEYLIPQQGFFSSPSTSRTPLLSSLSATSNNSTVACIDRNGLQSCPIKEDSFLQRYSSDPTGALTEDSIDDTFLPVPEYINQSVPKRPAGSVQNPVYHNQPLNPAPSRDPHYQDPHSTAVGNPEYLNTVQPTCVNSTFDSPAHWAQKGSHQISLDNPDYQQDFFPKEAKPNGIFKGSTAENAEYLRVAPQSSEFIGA
# CDK2 = target: T7, CDK2 (Homo sapiens, UniProt P24941); experiment: Inhibition specificity, CDK2; format: biochemical; details: 5000 nM, average of two tests; read-out: Average Inhibition Rate (%) CDK2
# T7 construct: purchased UPSTATE
# DMPK = target: T8, DMPK (Homo sapiens, UniProt Q09013); experiment: Inhibition specificity, DMPK; format: biochemical; details: 5000 nM, average of two tests; read-out: Average Inhibition Rate (%) DMPK
# T8 construct: purchased INVITROGEN
# T8 sequence (Q09013 whole entry, species assumed): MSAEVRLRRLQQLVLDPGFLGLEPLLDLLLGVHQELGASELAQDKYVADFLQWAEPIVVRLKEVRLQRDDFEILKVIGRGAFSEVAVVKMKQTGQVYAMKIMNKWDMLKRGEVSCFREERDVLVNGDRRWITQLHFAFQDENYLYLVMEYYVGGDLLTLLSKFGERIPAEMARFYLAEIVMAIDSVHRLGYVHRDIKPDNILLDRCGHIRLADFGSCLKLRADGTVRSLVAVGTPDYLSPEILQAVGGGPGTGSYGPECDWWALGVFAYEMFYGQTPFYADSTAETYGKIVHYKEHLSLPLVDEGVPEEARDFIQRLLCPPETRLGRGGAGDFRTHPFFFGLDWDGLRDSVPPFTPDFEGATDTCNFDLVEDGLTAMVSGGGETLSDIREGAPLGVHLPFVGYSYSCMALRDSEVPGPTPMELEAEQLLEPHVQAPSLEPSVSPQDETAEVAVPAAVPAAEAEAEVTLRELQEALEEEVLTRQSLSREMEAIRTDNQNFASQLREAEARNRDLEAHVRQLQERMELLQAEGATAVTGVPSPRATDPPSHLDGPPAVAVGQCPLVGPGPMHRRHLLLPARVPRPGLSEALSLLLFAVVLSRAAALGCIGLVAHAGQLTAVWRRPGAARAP
# PDGFR-β = target: T9, PDGFR-β (Homo sapiens, UniProt P09619); experiment: Inhibition specificity, PDGFR-β; format: biochemical; details: 5000 nM, average of two tests; read-out: Average Inhibition Rate (%) PDGFR-β
# T9 construct: purchased Upstate
# KDR (VEGFR2) = target: T10, KDR (VEGFR2) (Homo sapiens, UniProt P35968); experiment: Inhibition specificity, KDR; format: biochemical; details: 5000 nM, average of two tests; for inhibition at 5 µM: read-out: Average Inhibition Rate (%) KDR
# T10 construct: purchased Invitrogen
# T10 sequence (P35968 20-1356, species assumed): as the sequence (P35968 20-1356) above
# AKT2 = target: T11, AKT2 (Homo sapiens, UniProt P31751); experiment: Inhibition specificity, AKT2; format: biochemical; details: 5000 nM, average of two tests; read-out: Average Inhibition Rate (%) AKT2
# T11 construct: purchased INVITROGEN
# PKC-α = target: T12, PKC-α (Homo sapiens, UniProt P17252); experiment: Inhibition specificity, PKC-α; format: biochemical; details: 5000 nM, average of two tests; read-out: Average Inhibition Rate (%) PKC-α
# T12 construct: purchased INVITROGEN
# SYK = target: T13, SYK (Homo sapiens, UniProt P43405); experiment: Inhibition specificity, SYK; format: biochemical; details: 5000 nM, average of two tests; read-out: Average Inhibition Rate (%) SYK
# T13 construct: purchased BPS
# PI3K-α = target: T14, PI3K-α (Homo sapiens, UniProt P42336); experiment: Inhibition specificity, PI3K-α (ADP-Glo); format: biochemical; details: 5000 nM, average of two tests; read-out: Average Inhibition Rate (%) PI3K-α
# T14 construct: purchased INVITROGEN
# T14 sequence (P42336 whole entry, species assumed): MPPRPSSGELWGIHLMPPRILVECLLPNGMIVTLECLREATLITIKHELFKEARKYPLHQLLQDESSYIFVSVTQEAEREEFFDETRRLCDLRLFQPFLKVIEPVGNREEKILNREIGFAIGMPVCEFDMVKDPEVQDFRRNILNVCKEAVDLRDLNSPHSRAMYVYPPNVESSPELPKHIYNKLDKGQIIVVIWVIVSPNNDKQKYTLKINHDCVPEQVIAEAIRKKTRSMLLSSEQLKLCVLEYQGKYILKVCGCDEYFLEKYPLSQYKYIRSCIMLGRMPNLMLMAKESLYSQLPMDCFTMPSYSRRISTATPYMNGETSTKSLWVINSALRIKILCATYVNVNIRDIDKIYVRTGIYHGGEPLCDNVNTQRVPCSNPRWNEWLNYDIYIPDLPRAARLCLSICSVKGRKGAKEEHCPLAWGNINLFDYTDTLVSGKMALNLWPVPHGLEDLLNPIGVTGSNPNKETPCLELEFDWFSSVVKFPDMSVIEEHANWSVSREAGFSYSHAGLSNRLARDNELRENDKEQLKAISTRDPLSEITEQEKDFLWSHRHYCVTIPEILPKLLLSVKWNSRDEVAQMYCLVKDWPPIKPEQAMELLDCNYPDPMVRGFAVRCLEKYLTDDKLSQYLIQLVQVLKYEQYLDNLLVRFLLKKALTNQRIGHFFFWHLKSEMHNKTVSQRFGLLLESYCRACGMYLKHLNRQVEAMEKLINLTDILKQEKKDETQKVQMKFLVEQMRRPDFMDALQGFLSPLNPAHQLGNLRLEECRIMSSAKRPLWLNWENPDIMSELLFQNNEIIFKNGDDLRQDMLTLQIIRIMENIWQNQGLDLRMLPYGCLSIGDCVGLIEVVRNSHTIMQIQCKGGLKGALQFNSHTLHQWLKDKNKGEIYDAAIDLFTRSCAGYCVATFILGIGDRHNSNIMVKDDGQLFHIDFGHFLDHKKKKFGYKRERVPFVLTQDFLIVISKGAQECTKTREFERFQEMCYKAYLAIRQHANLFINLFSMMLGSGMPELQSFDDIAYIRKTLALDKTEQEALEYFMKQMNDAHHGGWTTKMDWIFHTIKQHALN
# T14 sequence (P27986 whole entry partner, species assumed): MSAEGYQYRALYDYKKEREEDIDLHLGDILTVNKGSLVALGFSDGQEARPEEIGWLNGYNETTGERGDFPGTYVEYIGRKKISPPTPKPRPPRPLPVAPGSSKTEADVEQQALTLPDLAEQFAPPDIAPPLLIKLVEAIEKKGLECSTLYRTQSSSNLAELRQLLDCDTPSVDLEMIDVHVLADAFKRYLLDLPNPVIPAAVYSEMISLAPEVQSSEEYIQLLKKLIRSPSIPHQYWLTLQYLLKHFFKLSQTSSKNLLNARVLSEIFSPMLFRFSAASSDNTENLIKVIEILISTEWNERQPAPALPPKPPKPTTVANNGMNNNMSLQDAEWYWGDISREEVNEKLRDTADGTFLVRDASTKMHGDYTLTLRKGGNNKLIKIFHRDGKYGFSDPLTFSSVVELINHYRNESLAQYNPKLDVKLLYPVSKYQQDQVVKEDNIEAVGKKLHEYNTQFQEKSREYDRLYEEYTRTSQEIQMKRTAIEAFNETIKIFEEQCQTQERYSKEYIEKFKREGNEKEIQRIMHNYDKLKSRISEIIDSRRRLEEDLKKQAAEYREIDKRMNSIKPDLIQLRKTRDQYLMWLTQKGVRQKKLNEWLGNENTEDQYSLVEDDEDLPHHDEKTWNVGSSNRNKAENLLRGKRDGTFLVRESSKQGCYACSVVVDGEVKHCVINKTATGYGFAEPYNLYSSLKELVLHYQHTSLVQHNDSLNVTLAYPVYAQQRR
Compound,inhibition at 5 µM (GSK-3-β) [%],"inhibition of VEGFR2 (in words, FIG. 8) (VEGFR2)",inhibition at 5 µM (JAK2) [%],inhibition at 0.1 µM [1] [%],inhibition at 1 µM [1] [%],inhibition at 5 µM [1] [%],inhibition at 10 µM [1] [%],inhibition at 20 µM [1] [%],inhibition at 40 µM [1] [%],inhibition at 100 µM [1] [%],inhibition effect on the vessel development of the danio rerio (in words) [1],inhibition at 5 µM (FGFR2) [%],inhibition at 5 µM (P38-α) [%],inhibition at 5 µM (CHEK1) [%],inhibition at 5 µM (EGFR) [%],inhibition at 5 µM (CDK2) [%],inhibition at 5 µM (DMPK) [%],inhibition at 5 µM (PDGFR-β) [%],inhibition at 5 µM (KDR (VEGFR2)) [%],inhibition at 5 µM (AKT2) [%],further results
Nc1cc(Oc2ccc3c(C(=O)Nc4cccc(C(F)(F)F)c4)cccc3n2)ncn1 [Compound 2-1],-0.57,can inhibit VEGFR2,~21,10,50,100,100,100,100,100,have inhibition effect on the vessel development of the danio rerio,~36,16.9,2.54,5.35,3.75,1.53,~71,> 97,1.35,inhibition at 5 µM (PKC-α): -0.01%; inhibition at 5 µM (SYK): -2.15%; inhibition at 5 µM (PI3K-α): 6.78%
Nc1nccc(Oc2ccc3c(C(=O)Nc4cccc(C(F)(F)F)c4)cccc3n2)n1 [Compound 2-2],0.555,can inhibit VEGFR2,7.83,50,100,100,100,100,100,100,have inhibition effect on the vessel development of the danio rerio,> 61,~80,0.695,-0.625,2.02,4.5,~97,100,-1.2,Average Inhibition Rate (%) KDR (KDR (VEGFR2); 5 µM): 100.1%; inhibition at 5 µM (PKC-α): 2.63%; inhibition at 5 µM (SYK): -5.87%; inhibition at 5 µM (PI3K-α): -7.1%
